Laboratory results taken from ChEMBL document CHEMBL1201862, “PubChem BioAssay data set” (2004).
Activity calls are given as the source filed them.

Key:
Leucine aminopeptidase = target: T1, Leucine aminopeptidase (Plasmodium falciparum 3D7, UniProt Q8IL11); assay: P. falciparum M17LAP inhibitors, primary screen, biochemical, fluorogenic H-Leu-NHMec substrate, 1536-well (AID 1619); type: functional
T1 sequence (Q8IL11 whole entry): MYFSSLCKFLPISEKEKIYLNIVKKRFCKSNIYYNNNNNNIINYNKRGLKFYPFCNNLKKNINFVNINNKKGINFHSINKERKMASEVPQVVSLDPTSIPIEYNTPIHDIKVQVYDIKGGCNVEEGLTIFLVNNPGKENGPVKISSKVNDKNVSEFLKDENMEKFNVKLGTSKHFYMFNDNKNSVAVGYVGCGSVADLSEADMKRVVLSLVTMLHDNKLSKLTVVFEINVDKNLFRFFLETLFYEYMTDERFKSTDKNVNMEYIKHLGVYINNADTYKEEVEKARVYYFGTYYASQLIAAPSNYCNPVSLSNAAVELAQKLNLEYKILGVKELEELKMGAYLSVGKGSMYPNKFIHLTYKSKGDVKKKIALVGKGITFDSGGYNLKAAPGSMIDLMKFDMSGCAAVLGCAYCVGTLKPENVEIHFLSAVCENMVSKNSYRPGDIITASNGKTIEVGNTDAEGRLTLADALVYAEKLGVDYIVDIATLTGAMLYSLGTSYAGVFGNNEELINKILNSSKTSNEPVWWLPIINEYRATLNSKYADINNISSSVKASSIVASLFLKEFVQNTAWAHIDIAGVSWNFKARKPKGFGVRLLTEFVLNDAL

cells [1] = type: functional, cell-based
cells [2] = type: functional, cell-based; remark: listed apart in the source
[3] = target: DNA dC->dU-editing enzyme APOBEC-3G (Homo sapiens, UniProt Q9HC16); assay: Dose Response confirmation of small molecule APOBEC3G DNA Deaminase Inhibitors via a fluorescence-based single-stranded DNA deaminase assay. [Related pubchem assays (depositor defined):AID493012, AID493028]; type: functional
Chain of DNA dC->dU-editing enzyme APOBEC-3G (Q9HC16 whole entry): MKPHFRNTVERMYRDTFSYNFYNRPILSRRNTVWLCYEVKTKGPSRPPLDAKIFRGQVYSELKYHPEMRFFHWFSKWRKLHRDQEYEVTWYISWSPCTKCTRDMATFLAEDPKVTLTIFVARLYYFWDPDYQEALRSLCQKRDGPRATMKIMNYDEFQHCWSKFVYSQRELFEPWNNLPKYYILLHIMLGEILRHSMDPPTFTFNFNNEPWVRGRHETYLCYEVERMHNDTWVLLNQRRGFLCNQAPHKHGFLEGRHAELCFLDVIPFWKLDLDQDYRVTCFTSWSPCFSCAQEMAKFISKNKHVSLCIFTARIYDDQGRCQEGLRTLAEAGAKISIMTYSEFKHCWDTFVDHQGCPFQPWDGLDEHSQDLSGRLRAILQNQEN

BJ [4] = assay: BJ-TERT fibroblast viability loss – cell-based, RAS-independent, luminescence, dose response (AID 1933); type: functional; conditions: Homo sapiens
BJ [5] = assay: cells; type: functional, cell-based; conditions: Homo sapiens
[6] = Trypanosoma cruzi growth suppression in host cells – NIH3T3 host cells, beta-gal luminescence, confirmation (AID 2044); type: functional, cell-based;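 note: intracellular parasites grown in NIH/3T3 mouse fibroblasts as host cells; luminescent beta-galactosidase reporter signal from transgenic T. cruzi replicating inside host cells; inhibitors lower the luminescence signal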
[7] = NIH3T3 cell viability loss – ATP luminescence, mouse fibroblasts, counter-screen, dose response (AID 2010); type: functional, cell-based;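 note: cells exposed to compound for about 90 hours before reading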
BJ [8] = assay: BJ-TERT-LT-ST fibroblast viability loss – cell-based, RAS-independent, luminescence, dose response (AID 1935); type: functional; conditions: Homo sapiens;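 note: BJ fibroblasts immortalized with TERT plus LT and ST oncogenes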
[9] = DRD fibroblast viability loss – cell-based, non-viral oncogenic, luminescence, dose response (AID 1934); type: functional; conditions: Homo sapiens
Hexokinase HKDC1 = target: T2, Hexokinase HKDC1 (Homo sapiens, UniProt Q2TB90); assay: inhibition of HKDC1 glucose phosphorylation – biochemical, W721R variant, dose response (AID 504729); type: functional
T2 sequence (Q2TB90 whole entry): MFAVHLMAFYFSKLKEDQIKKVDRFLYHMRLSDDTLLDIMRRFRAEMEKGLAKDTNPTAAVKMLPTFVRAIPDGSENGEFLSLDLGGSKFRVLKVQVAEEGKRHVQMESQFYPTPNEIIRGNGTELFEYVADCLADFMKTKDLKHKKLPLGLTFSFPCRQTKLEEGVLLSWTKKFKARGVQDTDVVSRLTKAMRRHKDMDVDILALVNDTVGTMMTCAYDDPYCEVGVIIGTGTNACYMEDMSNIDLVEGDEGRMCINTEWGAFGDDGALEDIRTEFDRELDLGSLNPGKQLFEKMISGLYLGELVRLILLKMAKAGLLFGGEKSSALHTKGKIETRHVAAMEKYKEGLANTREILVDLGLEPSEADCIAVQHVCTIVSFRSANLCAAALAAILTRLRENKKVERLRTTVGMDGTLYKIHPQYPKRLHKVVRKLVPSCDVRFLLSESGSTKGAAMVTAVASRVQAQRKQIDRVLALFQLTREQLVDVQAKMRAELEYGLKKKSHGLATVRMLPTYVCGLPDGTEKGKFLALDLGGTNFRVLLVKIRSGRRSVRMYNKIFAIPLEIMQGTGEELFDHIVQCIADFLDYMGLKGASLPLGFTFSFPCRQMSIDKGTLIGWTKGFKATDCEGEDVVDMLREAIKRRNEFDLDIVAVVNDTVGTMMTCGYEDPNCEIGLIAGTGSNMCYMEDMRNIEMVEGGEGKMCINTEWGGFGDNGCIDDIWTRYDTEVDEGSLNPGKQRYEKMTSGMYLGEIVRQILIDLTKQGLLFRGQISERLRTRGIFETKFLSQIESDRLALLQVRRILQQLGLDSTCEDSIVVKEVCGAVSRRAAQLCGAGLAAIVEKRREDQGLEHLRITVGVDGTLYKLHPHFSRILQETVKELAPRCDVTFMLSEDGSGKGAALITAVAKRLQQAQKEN

[10] = reduction of Shn3 3'UTR-driven luciferase in osteoblasts – cell-based, Clone20 osteoblasts, firefly luciferase, cherry-picked, dose response (AID 624132); type: functional;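 note: firefly luciferase luminescence from reporter carrying the Shn3 3'UTR in osteoblasts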
[11] = loss of viability in HepG2 cells – cell-based, CellTiter-Glo, cherry-picked, cytotoxicity control for Shn3 inhibitor project, dose response (AID 624134); type: functional
[12] = non-specific 3'UTR reporter inhibition in Clone20-Shn3RL – cell-based, Renilla luciferase, cherry-picked, counter-screen for Shn3 inhibitor project, dose response (AID 624133); type: functional
[13] = target: T3, Histone-lysine N-methyltransferase NSD2 (Homo sapiens, UniProt O96028); type: biochemical
T3 sequence (O96028 whole entry): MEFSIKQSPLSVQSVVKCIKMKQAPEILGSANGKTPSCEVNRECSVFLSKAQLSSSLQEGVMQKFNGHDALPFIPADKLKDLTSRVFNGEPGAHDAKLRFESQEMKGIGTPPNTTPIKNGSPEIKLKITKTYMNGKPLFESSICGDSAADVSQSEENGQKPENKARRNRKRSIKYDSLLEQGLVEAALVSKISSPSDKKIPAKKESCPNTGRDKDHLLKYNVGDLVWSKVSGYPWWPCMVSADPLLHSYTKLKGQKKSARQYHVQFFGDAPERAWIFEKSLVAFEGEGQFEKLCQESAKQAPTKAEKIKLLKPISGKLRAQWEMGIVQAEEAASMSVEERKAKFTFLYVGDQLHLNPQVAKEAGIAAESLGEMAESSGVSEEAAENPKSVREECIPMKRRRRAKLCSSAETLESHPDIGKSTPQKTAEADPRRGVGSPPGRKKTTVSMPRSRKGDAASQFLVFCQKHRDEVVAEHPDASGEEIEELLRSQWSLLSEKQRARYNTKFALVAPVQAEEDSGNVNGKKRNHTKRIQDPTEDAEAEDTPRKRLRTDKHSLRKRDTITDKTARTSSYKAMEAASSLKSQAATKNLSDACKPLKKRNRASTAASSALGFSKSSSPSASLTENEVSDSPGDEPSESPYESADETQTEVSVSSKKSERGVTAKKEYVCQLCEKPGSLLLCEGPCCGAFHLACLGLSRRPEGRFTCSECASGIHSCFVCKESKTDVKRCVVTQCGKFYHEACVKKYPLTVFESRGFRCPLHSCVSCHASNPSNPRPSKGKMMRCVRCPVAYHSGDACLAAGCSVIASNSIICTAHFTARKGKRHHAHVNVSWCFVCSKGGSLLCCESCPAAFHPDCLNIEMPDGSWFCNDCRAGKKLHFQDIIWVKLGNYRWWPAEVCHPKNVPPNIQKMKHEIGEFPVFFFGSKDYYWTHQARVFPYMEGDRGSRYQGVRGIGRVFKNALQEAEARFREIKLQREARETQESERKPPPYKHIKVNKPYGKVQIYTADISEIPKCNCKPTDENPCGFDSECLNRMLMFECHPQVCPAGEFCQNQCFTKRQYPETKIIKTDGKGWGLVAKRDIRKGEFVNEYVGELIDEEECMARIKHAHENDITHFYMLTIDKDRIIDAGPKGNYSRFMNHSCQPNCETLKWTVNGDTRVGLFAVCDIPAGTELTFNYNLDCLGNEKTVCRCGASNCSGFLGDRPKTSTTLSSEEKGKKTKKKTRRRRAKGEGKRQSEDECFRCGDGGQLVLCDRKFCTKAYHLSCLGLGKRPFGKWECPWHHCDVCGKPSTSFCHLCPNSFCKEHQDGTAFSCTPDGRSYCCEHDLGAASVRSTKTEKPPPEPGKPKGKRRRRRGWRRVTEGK

Trypsin = Trypsin (Sus scrofa, UniProt P00761); assay: trypsin protease activity blockade – biochemical, quenched peptide fluorescence, cherry-pick, selectivity assay for Rce1 protease inhibitor project, dose response (AID 488789)
Chain of Trypsin (P00761 whole entry): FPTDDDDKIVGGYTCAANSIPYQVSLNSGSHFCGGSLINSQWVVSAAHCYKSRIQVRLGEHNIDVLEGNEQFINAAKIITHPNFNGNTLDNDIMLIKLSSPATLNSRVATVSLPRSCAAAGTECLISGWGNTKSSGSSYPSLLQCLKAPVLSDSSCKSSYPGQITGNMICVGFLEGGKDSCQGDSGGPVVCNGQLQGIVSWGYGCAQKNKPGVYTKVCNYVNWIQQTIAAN

CAAX prenyl protease 2 = target: T4, CAAX prenyl protease 2 (Saccharomyces cerevisiae S288c, UniProt Q03530); type: biochemical
T4 sequence (Q03530 whole entry): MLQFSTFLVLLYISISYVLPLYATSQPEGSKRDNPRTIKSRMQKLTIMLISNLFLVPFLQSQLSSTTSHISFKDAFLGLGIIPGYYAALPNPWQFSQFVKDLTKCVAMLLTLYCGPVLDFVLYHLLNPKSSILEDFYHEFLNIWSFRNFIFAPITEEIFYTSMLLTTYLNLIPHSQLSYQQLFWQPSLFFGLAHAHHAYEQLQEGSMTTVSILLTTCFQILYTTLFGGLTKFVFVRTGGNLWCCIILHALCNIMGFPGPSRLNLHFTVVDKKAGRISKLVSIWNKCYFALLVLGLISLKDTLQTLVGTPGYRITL

ORF 73 = ORF 73 (Human herpesvirus 8, UniProt O40947); assay: KSHV LANA DNA-binding disruption – biochemical, fluorescence polarization, cherry-picked samples, dose response (AID 504725); design: species or system Human gammaherpesvirus 8;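 note: fluorescence polarization of a labeled DNA duplex reporting LANA DNA binding; potency is for inhibitors that block LANA binding to the DNA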
Chain of ORF 73 (O40947 whole entry, the tested form may be a part): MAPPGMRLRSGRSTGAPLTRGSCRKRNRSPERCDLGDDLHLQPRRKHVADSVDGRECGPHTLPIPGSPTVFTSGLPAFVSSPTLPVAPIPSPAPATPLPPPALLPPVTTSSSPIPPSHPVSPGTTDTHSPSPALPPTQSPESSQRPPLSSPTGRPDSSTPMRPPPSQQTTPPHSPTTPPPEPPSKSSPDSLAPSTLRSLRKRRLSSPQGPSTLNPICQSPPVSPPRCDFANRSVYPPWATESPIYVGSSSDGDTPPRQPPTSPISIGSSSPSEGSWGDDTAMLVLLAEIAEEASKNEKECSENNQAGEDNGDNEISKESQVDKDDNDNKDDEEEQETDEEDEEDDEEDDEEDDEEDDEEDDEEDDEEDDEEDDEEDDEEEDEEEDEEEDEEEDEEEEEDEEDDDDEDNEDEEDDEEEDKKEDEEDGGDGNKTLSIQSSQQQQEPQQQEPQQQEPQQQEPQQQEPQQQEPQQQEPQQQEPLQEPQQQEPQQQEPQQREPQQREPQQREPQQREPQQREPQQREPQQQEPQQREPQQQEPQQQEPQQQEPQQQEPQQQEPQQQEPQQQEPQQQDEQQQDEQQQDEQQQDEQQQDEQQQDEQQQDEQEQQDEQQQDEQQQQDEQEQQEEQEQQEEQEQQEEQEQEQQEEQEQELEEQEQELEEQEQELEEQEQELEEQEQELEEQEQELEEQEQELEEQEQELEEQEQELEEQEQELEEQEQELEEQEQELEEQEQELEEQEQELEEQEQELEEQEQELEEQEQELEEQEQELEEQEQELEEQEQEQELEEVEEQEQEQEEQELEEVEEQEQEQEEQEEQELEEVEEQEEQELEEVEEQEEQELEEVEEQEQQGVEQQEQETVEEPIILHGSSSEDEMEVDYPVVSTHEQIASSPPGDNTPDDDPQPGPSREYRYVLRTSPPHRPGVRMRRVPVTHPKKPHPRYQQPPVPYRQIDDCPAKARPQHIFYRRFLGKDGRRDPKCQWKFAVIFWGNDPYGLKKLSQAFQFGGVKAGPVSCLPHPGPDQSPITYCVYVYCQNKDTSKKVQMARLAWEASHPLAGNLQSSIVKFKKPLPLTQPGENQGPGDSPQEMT

[14] = target: T5, Carboxy-terminal domain RNA polymerase II polypeptide A small phosphatase 1 (Homo sapiens, UniProt Q9GZU7); assay: CTDSP1 inhibitors, concentration-response, biochemical, absorbance readout, ultra-high-throughput screen actives (AID 540297); type: functional
T5 sequence (Q9GZU7 whole entry): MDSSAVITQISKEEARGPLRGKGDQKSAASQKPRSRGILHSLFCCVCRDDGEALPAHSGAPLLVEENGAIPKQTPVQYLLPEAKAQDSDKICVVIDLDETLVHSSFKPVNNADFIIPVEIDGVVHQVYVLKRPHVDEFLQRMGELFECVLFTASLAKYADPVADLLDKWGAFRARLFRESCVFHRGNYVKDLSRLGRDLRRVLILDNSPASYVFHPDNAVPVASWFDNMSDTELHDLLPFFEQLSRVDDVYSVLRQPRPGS

[15] = target: DNA (cytosine-5)-methyltransferase 1 (Homo sapiens, UniProt P26358); assay: inhibition of DNA methylation by DNMT1 – biochemical, fluorescent molecular beacon, confirmation (AID 602386); type: functional
[16] = target: T6, Long-chain-fatty-acid--AMP ligase FadD28 (Mycobacterium tuberculosis, UniProt P9WQ59); assay: Fluorescence polarization aasay to screen for inhibitors that compete for the binding of FadD28 to a bisubstrate Measured in Biochemical System Using Plate Reader - 2147-01_Inhibitor_Dose_CherryPick_Activity.; type: functional, Mycobacterium tuberculosis H37Rv
T6 sequence (P9WQ59 whole entry): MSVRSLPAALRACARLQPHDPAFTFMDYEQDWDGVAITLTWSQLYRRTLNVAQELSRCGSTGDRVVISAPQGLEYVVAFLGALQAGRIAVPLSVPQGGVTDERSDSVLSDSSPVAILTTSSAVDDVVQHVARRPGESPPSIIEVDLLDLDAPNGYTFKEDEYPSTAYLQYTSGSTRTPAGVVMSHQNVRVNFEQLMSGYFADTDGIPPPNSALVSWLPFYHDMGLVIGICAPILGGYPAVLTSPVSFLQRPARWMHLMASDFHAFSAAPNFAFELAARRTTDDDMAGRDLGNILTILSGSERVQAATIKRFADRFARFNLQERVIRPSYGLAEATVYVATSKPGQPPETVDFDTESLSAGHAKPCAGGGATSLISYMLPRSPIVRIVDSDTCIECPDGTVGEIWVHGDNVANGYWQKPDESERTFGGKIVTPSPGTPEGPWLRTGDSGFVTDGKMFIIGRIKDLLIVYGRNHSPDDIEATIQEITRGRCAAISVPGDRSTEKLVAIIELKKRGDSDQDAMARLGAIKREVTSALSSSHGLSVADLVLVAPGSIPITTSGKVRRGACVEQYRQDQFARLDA

[17] = target: Voltage-dependent T-type calcium channel subunit alpha-1H (Homo sapiens, UniProt O95180); type: functional;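 note: channel activity triggered by adding a high calcium stimulation buffer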
Chain of Voltage-dependent T-type calcium channel subunit alpha-1H (O95180 whole entry): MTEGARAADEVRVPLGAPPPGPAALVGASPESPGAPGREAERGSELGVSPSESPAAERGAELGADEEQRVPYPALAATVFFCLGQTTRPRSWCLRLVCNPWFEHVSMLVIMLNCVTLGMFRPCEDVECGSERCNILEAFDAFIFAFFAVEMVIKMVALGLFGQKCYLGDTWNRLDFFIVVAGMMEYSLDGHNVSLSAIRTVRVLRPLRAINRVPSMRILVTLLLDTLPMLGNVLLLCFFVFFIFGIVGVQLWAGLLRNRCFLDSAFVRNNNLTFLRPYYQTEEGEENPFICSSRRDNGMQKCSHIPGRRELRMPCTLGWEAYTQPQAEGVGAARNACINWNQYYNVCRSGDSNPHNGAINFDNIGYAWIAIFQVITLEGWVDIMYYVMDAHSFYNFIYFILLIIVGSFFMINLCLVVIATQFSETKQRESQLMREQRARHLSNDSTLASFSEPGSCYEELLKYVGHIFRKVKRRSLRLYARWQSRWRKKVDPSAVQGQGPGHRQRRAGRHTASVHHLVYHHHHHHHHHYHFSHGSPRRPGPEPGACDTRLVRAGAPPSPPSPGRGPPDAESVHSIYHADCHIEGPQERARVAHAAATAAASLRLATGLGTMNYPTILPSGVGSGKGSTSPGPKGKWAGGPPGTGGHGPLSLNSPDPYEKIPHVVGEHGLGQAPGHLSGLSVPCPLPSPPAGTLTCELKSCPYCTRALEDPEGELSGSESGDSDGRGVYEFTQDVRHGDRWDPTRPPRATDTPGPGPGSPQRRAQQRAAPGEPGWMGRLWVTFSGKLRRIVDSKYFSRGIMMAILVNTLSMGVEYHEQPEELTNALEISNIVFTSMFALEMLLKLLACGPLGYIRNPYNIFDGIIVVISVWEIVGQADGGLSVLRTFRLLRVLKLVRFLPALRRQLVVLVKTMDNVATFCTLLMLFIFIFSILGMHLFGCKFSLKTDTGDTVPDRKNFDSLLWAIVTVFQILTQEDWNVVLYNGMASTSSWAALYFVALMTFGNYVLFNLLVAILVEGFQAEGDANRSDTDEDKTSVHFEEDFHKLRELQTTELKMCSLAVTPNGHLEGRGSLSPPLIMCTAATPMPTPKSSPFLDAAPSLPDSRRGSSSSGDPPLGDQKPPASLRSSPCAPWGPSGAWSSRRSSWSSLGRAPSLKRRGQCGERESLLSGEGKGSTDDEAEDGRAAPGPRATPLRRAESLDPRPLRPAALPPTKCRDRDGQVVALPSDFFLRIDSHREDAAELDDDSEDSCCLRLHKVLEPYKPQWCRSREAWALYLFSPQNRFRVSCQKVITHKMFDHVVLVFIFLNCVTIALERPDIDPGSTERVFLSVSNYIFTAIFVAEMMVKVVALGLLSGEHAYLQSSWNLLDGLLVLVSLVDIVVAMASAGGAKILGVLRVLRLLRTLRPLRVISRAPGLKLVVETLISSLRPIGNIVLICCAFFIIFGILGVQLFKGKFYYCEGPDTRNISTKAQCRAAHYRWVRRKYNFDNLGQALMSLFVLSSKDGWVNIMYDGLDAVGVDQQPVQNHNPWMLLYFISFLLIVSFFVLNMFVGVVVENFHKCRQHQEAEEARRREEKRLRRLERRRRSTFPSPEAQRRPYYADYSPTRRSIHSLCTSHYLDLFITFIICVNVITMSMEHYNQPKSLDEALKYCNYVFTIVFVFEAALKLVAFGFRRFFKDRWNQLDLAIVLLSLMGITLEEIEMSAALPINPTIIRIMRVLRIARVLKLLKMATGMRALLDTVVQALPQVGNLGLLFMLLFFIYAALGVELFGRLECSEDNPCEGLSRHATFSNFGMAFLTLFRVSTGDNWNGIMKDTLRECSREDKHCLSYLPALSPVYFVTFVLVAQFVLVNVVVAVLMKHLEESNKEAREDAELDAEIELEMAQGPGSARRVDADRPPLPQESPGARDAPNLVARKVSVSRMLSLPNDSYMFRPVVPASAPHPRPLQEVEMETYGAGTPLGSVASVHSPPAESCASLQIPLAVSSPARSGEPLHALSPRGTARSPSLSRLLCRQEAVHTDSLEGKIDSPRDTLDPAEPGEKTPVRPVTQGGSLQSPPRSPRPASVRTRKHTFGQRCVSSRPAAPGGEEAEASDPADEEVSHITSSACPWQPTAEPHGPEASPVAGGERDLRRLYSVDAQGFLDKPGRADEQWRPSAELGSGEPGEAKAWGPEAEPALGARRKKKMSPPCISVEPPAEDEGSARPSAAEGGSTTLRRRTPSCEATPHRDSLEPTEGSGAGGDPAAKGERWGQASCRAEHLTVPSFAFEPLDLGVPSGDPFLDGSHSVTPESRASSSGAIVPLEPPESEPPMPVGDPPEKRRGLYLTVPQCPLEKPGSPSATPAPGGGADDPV

[18] = Luminescence Cell-Based Dose Retest to Confirm Inhibitors of Cancer Stem Cells. [Related pubchem assays (depositor defined):AID2717, AID2721]; type: functional; conditions: Homo sapiens

SMILES: COc1cccc(Nc2nnc(S)s2)c1
- IC50 (Leucine aminopeptidase): 6.54 µM (active)
- EC50 (cells [1]): > 350 µM (not active)
- EC50 (cells [2]): > 350 µM (not active)
- IC50 [3]: > 100 µM (inactive)

SMILES: CCN(CC)CCNc1cc(C)nc2c1C(=O)C(=O)C=C2N1CCCCC1
- EC50 (BJ [4]): 5.91 µM (inconclusive)
- EC50 (cells [1]): > 350 µM (not active)
- EC50 (BJ [5]): 10.2 µM (active)
- EC50 [6]: 1.44 µM (active)
- EC50 (cells [2]): > 350 µM (not active)
- EC50 [7]: > 60 µM (not active)
- EC50 (BJ [8]): 8.38 µM (active)
- EC50 [9]: 9.47 µM (active)
- IC50 (Hexokinase HKDC1): 13.2 µM (active)
- AC50 [10]: 6.61 µM (active)
- AC50 [11]: 5.54 µM (active)
- AC50 [12]: 6.45 µM (active)
- AC50 [13]: > 20 µM (inactive)

SMILES: CCN(CC)Cc1c(O)ccc2c(=O)c(-c3ccccc3OC)coc12
- AC50 (Trypsin): 21.4 µM (active)
- AC50 (CAAX prenyl protease 2): 13.8 µM (active)

SMILES: Cc1ccccc1NC(=O)CN1C(=O)N/C(=C\c2cccn2-c2cccc(C(=O)O)c2)C1=O
- AC50 (ORF 73): 74.7 µM (active)
- IC50 [14]: 4.42 µM (active)
- IC50 [15]: 6.37 µM (active)
- AC50 [16]: 55.3 µM (active)

SMILES: COc1ccc(Cn2nnnc2C(C(C)C)N(Cc2ccco2)Cc2cccs2)cc1 (stereo unspecified)
- EC50 [17]: 6.56 µM (active)
- AC50 [18]: 2.02 µM (active)

SMILES: O=C(NC1CCCC1)C(c1ccccc1)N(Cc1ccc2c(c1)OCO2)C(=O)Cc1cccs1 (stereo unspecified)
- EC50 [17]: 1.52 µM (active)
